Assay results as given in US20090156501A1, “IDENTIFICATION OF LIGANDS BY SELECTIVE AMPLIFICATION OF CELLS TRANSFECTED WITH RECEPTORS” (ACADIA PHARMACEUTICALS, INC., priority 1999, published 2009).
Read-outs that look alike come from different tables or passages of the source.

Experiments:
5-HT2A receptor = biological target: T1, 5-HT2A receptor (Homo sapiens, UniProt P28223); experiment: R-SAT functional assay of the 5-HT2A receptor in NIH 3T3 cells (agonism and inverse agonism); type: cell-based; details: for 5-HT2A Receptor Negative Log EC50: Table 6, inverse agonism, 50 ng per well receptor DNA; for Negative Log EC50, inverse agonists at the 5-HT2A receptor: Table 5, inhibition of constitutive activity, mean of three dose response experiments ± standard error
T1 construct: expressed in transfected cells; host or cells: NIH 3T3 (mouse fibroblasts), transient transfection, PSI expression vector

5-HT2C receptor = biological target: T2, 5-HT2C receptor (Homo sapiens, UniProt P28335); experiment: R-SAT functional assay of the 5-HT2C receptor (inverse agonism); type: cell-based; details: Table 6, 50 ng per well receptor DNA
T2 construct: expressed in transfected cells; PSI mammalian expression vector
T2 sequence (P28335 33-458): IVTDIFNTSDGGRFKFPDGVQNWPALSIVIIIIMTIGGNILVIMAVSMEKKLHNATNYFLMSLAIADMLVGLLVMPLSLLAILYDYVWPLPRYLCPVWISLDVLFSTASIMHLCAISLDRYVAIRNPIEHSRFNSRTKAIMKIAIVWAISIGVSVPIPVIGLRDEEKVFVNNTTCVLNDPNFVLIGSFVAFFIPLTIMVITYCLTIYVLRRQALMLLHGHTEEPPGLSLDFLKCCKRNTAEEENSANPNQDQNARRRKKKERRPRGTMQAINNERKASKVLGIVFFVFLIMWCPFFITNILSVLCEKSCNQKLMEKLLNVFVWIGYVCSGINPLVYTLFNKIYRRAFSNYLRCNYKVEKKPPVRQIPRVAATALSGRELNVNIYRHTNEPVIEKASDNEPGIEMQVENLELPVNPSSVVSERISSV

[1] = compounds at 300-500 nM, 50 ng/well receptor DNA, inhibition from basal, referenced to ritanserin (90-100%), mean of duplicates
[2] = compounds at 300-500 nM, 50 ng/well receptor DNA, […], mean of duplicates

T1 sequence (P28223 whole entry): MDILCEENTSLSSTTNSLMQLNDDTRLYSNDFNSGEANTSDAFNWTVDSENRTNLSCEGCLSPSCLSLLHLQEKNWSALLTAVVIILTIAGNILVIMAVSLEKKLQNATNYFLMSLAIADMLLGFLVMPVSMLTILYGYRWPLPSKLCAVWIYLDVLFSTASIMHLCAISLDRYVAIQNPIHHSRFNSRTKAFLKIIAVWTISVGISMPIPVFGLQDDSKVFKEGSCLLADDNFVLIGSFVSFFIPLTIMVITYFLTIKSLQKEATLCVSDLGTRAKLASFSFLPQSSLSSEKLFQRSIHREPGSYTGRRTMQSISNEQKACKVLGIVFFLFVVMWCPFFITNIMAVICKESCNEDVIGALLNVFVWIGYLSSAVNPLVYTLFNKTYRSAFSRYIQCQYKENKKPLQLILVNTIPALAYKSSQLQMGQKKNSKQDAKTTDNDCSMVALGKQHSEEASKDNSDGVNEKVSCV

Row | Compound | % INHIBITION, screen for inverse agonism at 5-HT2A receptors (5-HT2A receptor; [1]) [%] | 5-HT2C Receptor Negative Log EC50 (5-HT2C receptor) | also measured
1 | O=C(CCCN1CCC(O)(c2ccc(Br)cc2)CC1)c1ccc(F)cc1 [Bromperidol] |  | No Intrinsic | 
2 | CCNC(=O)N1CCN(CCCC(c2ccc(F)cc2)c2ccc(F)cc2)CC1 [Amperozide] |  | No Intrinsic | 
3 | O=C(CCCN1CCC2(CC1)C(=O)NCN2c1ccccc1)c1ccc(F)cc1 [Spiperone] | 82 | No Intrinsic | 
4 | CN(C)CCCSc1ccccc1NC(=O)/C=C/c1ccccc1 [CINANSERIN] | 75 |  | 
5 | O=C(CCCN1CCC(O)(c2cccc(C(F)(F)F)c2)CC1)c1ccc(F)cc1 [Triflouperidol] |  |  | % INHIBITION, screen for inverse agonism at 5-HT2A receptors (5-HT2A receptor): 96%
6 | CN1CCN(C2Cc3ccccc3Sc3ccc(Cl)cc32)CC1.O=C(O)/C=C\C(=O)O (stereo not drawn) [Octoclothepin] |  |  | 5-HT2A Receptor Negative Log EC50 (5-HT2A receptor): 9.74 ± 0.98; % INHIBITION, screen for inverse agonism at 5-HT2A receptors (5-HT2A receptor; [2]): 76%
7 | OCCN1CCN(CC/C=C2/c3ccccc3Sc3ccc(C(F)(F)F)cc32)CC1 [Cis-Flupentixol] |  | No Intrinsic | Negative Log EC50, inverse agonists at the 5-HT2A receptor (5-HT2A receptor): 8.04 ± 0.10 molar; 5-HT2A Receptor Negative Log EC50 (5-HT2A receptor): 8.04 ± 0.10; % INHIBITION, screen for inverse agonism at 5-HT2A receptors (5-HT2A receptor; [2]): 45%
8 | CSc1ccc2c(c1)C(N1CCN(C)CC1)Cc1ccccc1S2 (stereo not drawn) [METHIOTHEPIN] |  |  | % INHIBITION, screen for inverse agonism at 5-HT2A receptors (5-HT2A receptor): 79%
9 | OCCN1CCN(CC/C=C2\c3ccccc3Sc3ccc(C(F)(F)F)cc32)CC1 [Trans-Flupentixol] |  | 5.55 ± 0.37 | Negative Log EC50, inverse agonists at the 5-HT2A receptor (5-HT2A receptor): 6.77 ± 0.21 molar; 5-HT2A Receptor Negative Log EC50 (5-HT2A receptor): 6.77 ± 0.21
10 | N[C@@H](Cc1c[nH]c2ccc(O)cc12)C(=O)O [5-hydroxy-Ltryptophan] | 53 |  | 

More lines, main results first:

Row | % INHIBITION, screen for inverse agonism at 5-HT2A receptors (5-HT2A receptor; [1]) [%] | 5-HT2C Receptor Negative Log EC50 (5-HT2C receptor) | Compound | also measured
11 | 90 |  | Cc1nc2sccn2c(=O)c1CCN1CCC(=C(c2ccc(F)cc2)c2ccc(F)cc2)CC1 [ritanserin] | intrinsic activity at the 5-HT2A receptor (inverse agonism) (5-HT2A receptor; receptor signaling relative to baseline (no drug)): inverse agonist
12 |  | <5.0 | CCN(CC)CCCN1c2ccccc2Sc2ccc(Cl)cc21 [Chlorproethizene] | 5-HT2A Receptor Negative Log EC50 (5-HT2A receptor): 7.70 ± 0.33
13 | 82 |  | O=C(c1ccc(F)cc1)C1CCN(CCn2c(=O)[nH]c3ccccc3c2=O)CC1 [KETANSERIN] | 
14 | 92 |  | Cc1nc2ccccn2c(=O)c1CCN1CCC(C(=O)c2ccc(F)cc2)CC1 [PIRENPIRONE] | 
15 |  | No Intrinsic | Cc1ccc(C2(O)CCN(CCCC(=O)c3ccc(F)cc3)CC2)cc1 [Moperone] | 
16 |  | No Intrinsic | CN1CCCCC1CCN1c2ccccc2Sc2ccc([S+](C)[O-])cc21 (stereo not drawn) [Mesioridazine] | 5-HT2A Receptor Negative Log EC50 (5-HT2A receptor): 7.00 ± 0.30
17 |  | No Intrinsic | CCN1CCCC1CNC(=O)c1cc(S(N)(=O)=O)ccc1OC (stereo not drawn) [Sulpiride] | 
18 |  | 6.09 ± 0.45 | JL-18 | 
19 |  | Agonist | CN(C)CCCN1c2ccccc2Sc2ccccc21 [Promazine] | 
20 |  | No Intrinsic | CN1CCN(CC/C=C2/c3ccccc3Sc3ccc(S(=O)(=O)N(C)C)cc32)CC1 [Thiothixene] | 
21 | 77 |  | CN1CCN(C2=Nc3ccccc3Oc3ccc(Cl)cc32)CC1 [Loxapine] | 
22 | 57 |  | O=C1NCN(c2ccccc2)C12CCN(CCCC(c1ccc(F)cc1)c1ccc(F)cc1)CC2 [Fluspirilene] | 
23 |  | No Intrinsic | CC1CCN(CCCC(=O)c2ccc(F)cc2)CC1 [Melperone] | 
24 |  | Agonist | CN(C)CCCN1c2ccccc2Sc2cccnc21 [Prothypendyl] | 5-HT2A Receptor Negative Log EC50 (5-HT2A receptor): 6.60 ± 0.44
25 | 75 |  | NCCC1CCCC(CCN)N1 (stereo not drawn) [Mdl 26,630 3HCl] | 
